Data set [1] has as its system Escherichia coli 25922 (ATCC 25922, E. coli 25922). The data set can be described thus: Antimicrobial activity by liquid antimicrobial / turbidimetric method (OD540, microplate reader). It counts as cell-based. The following applies: E. coli drug sensitive strain; FIG. 1. As to the method: (§1) The materials of Gram negative bacteria and Gram positive bacteria used in the embodiments of the present disclosure include Gram negative bacteria Escherichia coli strain Escherichia coli 25922 (ATCC 25922, E. coli 25922) and Gram positive bacteria Staphylococcus aureus strain Staphylococcus aureus 25923 (ATCC 25923, S. aureus 25923). […] 100 µl of the sample was immediately taken and placed in a microplate reader to measure its OD540, which was recorded as OD 0h. Then the sample was placed in a 37°C constant temperature incubator for cultivation, 100 µl of the sample was taken every 1 h, and the OD540 of each centrifuge tube was measured. Based on the changes in absorbance, the growth of bacteria could be determined, and the antimicrobial activity and minimum inhibitory concentration (MIC) of the polypeptide could be determined. […] 100 µl of the sample was immediately taken and placed in a microplate reader to measure its OD540, which was record as OD 0h. Then the sample was placed in a 37°C constant temperature incubator for cultivation, 100 µl of the sample was taken every 1 h, and the OD540 of each centrifuge tube was measured once.

For data set [2], the system named is Staphylococcus aureus 25923 (ATCC 25923, S. aureus 25923). The description is as above. It counts as cell-based. The following applies: S. aureus drug sensitive strain; FIG. 2. As to the method: as §1
The test system of data set [3] is Human red blood cells (RBC). The format is cell-based. As to the method: Human red blood cells (RBC) were used to detect the hemolytic activity of Ac-SH-17. All subjects provided written informed consent. The obtained healthy human blood was placed in an EDTA anticoagulant tube. Red blood cells were collected by centrifugation and suspended in PBS to a concentration of 4% (v/v). An equal portion of 200 µl red blood cell suspension was mixed with 200 µl of Ac-SH-17 solution at different concentrations (12.5, 25, 50, 100, and 200 µg/ml). After incubation at 37°C, the mixture was centrifuged […], and the supernatant was collected and added to a 96-well plate. Red blood cells incubated with PBS, BSA solution (100 µg/ml), or 0.1% Triton X-100 solution were used as blank control, negative control, and positive control, respectively. The absorbance was measured at 540 nm using a microplate reader. Three parallel samples were set up for each experiment, and the experiment was repeated at least three times. The results were analyzed for significant differences by a two-way ANOVA method, with p<0.05 indicating significant differences. Table 3.1 Hemolysis analysis

In data set [4] the test system is RAW264.7 mouse macrophage cell line. The data set can be described thus: Anti-inflammatory experiment: NO release after LPS stimulation (Griess). It counts as cell-based. Particulars: antimicrobial peptide 80 µM; 1 µg/ml LPS stimulation; FIG. 4. The text has this: NO is a diffusible and membrane permeable small molecule obtained during the oxidation of L-arginine by NOS. NO was associated with many physiological reactions in organisms. […] But at low concentrations, NO could act as a signal to positively and negatively regulate innate and acquired immunity. Thus, by detecting the concentration of NO released by cells, the inflammatory response of cells could be detected.
The RAW264.7 mouse macrophage cell line was used as the experimental material and cultured in a DMEM high glucose medium containing FBS (10%) and penicillin-streptomycin dual antibody (100 U/ml). The RAW264.7 mouse macrophage cell line was used for experiments when the cell state was stable, the shape was full, and the edges were transparent.
• 1. The culture medium was removed from the cells and gently purged twice with PBS at room temperature to remove excess culture medium. After digestion with 0.25% trypsin for 3 min, the culture bottle was gently tapped to induce cell detachment, and then the culture medium was added to terminate digestion. The culture bottle was repeatedly blown and beaten to make the cells uniform. • 2. […]
4.2 In this experiment, NO was detected by the method provided in the total nitric oxide content determination kit, and improvements were made. […]
In general terms: The Griess reaction detects nitrite, a stable product of nitric oxide.

Data set [5] is described as follows: Antisepsis experiment: survival in fecal homogenate sepsis model. Particulars: intraperitoneal 0.5 ml of 80 µM; within 24 h; compared to the model group; FIG. 5. It counts as in vivo, SD rats. As to the method:
Sepsis refers to a systemic inflammatory response syndrome caused by infectious factors. A rat model of intestinal sepsis was established by injecting rat fecal homogenate into the abdominal cavity of model rats, followed by intraperitoneal injection of antimicrobial peptides to observe the survival rate of mice within 10-48 h, in order to evaluate the therapeutic effect of antimicrobial peptides on sepsis in mice.
60 SD rats were randomly divided into 6 groups by a random number table method, i.e., model group 1, model group 2, model group 3, model group 4, model group 5, and blank group, with 10 rats in each group. These 6 groups of rats were weighed and numbered in sequence.
After 1 week of adaptive feeding, fresh formed feces were collected from these 60 SD rats. After weighing the rat feces, an appropriate amount of physiological saline was added to it, and then the mixture was placed in a homogenizer for thorough grinding to prepare a rat feces homogenate at the concentration of 10%. The rat fecal homogenate was centrifuged at 3000 rpm for 5 min to obtain the supernatant, and then a syringe was used to suck out an appropriate amount of the supernatant for later use.
Before modeling, rats in model groups 1-5 were fasted for 12 hours, and then a 10% concentration of rat feces homogenate supernatant was injected intraperitoneally at a dose of 1 ml/200 g. […]

For the substance “Ac-SRMKKWAKIIEKWRKWH-NH2 [Ac-SH-17, Ac-SRMKKWAKIIEKWRKWH-NH2]”, the antimicrobial activity entry in data set [1] is “exhibited antimicrobial activity”. For the same substance, the antimicrobial activity entry in data set [2] is reported as “exhibited antimicrobial activity”. In data set [3], the “OD Value” is listed as 0.061±0.013 and the hemolytic effect result is “does not have significant hemolytic effect”. In data set [3] (red cells of human), the “Hemolysis Ratio (%)” value is reported as 4.40%. Moreover, in data set [4], the “inhibition of the release of NO” value is “significantly inhibited the release of NO” and the “release concentration of NO” value is “substantially the same as that of the blank control”. Besides, in data set [5], the survival rate entry was “significantly improved the survival rate”.

These data come from patent EP4610270A1, “NOVEL ANTIMICROBIAL PEPTIDE AND PHARMACEUTICAL COMPOSITION THEREOF” (Qingdao Sensheng Biopharmaceutical Technology Co., Ltd, priority 2022, dated 2024).
